Measured values published in ChEMBL document CHEMBL1201862, “PubChem BioAssay data set” (2004).
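How tested: cells in 96-well plates exposed to compound for 48 hours at five concentrations. GI50 = concentration required for 50% inhibition of growth.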 Calls of active or inactive are those of the source. No stated cut-off is given here; in the data, active = GI50 up to about 1.1 µM and inactive = higher.

Columns and labels:
Assay in all cases: inhibition of tumour cell growth, NCI panel, 48 h
[1] = tested on: MDA-MB-435
[2] = tested on: MDA-MB-231
[3] = tested on: PC-3
[4] = tested on: Hs-578T
[5] = tested on: SNB-78
[6] = tested on: DMS-114
[7] = tested on: XF498

Measured: GI50

O=[N+]([O-])/C=C/c1c(Cl)cccc1Cl
inactive: [1] 1.77 µM | [2] 1.91 µM | [3] 1.77 µM | [4] 9.44 µM

COc1cccc(/C=N/NC(=O)CN(C)C)c1O
inactive: [1] > 100 µM | [3] > 100 µM | [4] > 100 µM

COC(=O)c1s/c(=N\C(=S)N(C)C)n(-c2ccc(Cl)cc2)c1C(=O)OC
inactive: [5] > 100 µM

COc1ccc(/C=N/n2cnc3c(c2=O)S/C(=C2/SC(=S)N(c4ccc(C)cc4)C2=O)N3c2ccccc2)cc1
inactive: [6] 74.5 µM

CC(=O)c1c(-c2cccc3ccccc23)c(C#N)c(=S)n(C2OC(CO)C(O)C(O)C2O)c1C (configuration not stated)
inactive: [3] > 100 µM | [4] > 100 µM

CCOC(=O)c1nc2ccccc2nc1Oc1ccc(OC)cc1
inactive: [1] > 100 µM | [2] > 100 µM | [3] > 100 µM | [4] > 100 µM

CCOC(=O)Cc1csc2[n+]1C(=O)/C(=C/c1cccc(OC)c1O)S2
inactive: [1] 11.9 µM | [2] 51.5 µM | [3] 40.8 µM

O=C(N/N=C\c1cccc(O)c1)c1ccncc1
inactive: [1] > 100 µM | [2] > 100 µM | [3] > 100 µM | [4] > 100 µM

COC(=O)C1Cc2c(OC)ccc(OC)c2C(O)C1C(=O)OC (configuration not stated)
inactive: [1] > 100 µM | [2] > 100 µM | [3] > 100 µM | [4] > 100 µM

NC(=O)N/N=C1/CCC(O)CC1CC(=O)O (configuration not stated)
inactive: [1] > 100 µM | [2] > 100 µM | [3] > 100 µM | [4] > 100 µM

Cc1ccc(C2=Nn3c(nc4sc(-c5ccccc5)cc4c3=O)SC2)cc1
inactive: [1] > 100 µM | [2] > 100 µM | [3] > 100 µM | [4] > 100 µM

Cc1ccc2nc(SCC(=O)N/N=C3\C(=O)Nc4ccccc43)n(-c3ccccc3)c(=O)c2c1
inactive: [1] 16.5 µM | [2] 10.9 µM | [3] 17.1 µM | [4] 17.8 µM

COC(=O)C1=C(O)C(C(=O)OC)C2CC(=O)CC1C2(C)C (configuration not stated)
inactive: [1] > 100 µM | [2] > 100 µM | [3] > 100 µM | [4] 11.2 µM

COc1cc2c3c(c4cc(OC)c(OC)cc4c2cc1OC)C(=O)C1CCC(=O)N1C3 (configuration not stated)
inactive: [1] 21.9 µM | [2] 55.5 µM | [3] 25.6 µM | [4] 3.3 µM

c1csc(C(NC2=NCCO2)C2CC2)c1 (configuration not stated)
inactive: [2] > 100 µM | [3] > 100 µM | [4] > 100 µM

Cc1cc(S(=O)(=O)[N-]/C(=N/S(=O)(=O)c2ccc(Cl)cc2)[n+]2ccc(N(C)C)cc2)c(S)cc1Cl
inactive: [1] > 100 µM | [2] > 100 µM | [3] 54 µM | [4] 54.8 µM

CC1=CC(=O)/C(=C/NC(=S)c2ccncc2)C(=O)O1
inactive: [1] > 100 µM | [2] > 100 µM | [3] > 100 µM | [4] > 100 µM

CC(=O)NCCC1CN(C(=O)/C=C\C#C[Si](C)(C)C)c2ccccc21 (configuration not stated)
inactive: [1] 21.2 µM | [2] 17.3 µM | [3] 27 µM | [4] 33 µM

CCOC(=O)c1cc2c(ccc3cc(C(=O)OCC)[nH]c32)[nH]1
inactive: [1] 15.3 µM | [2] 12.6 µM | [3] > 100 µM | [4] 17.2 µM

CN(Cc1cccc2ccccc12)Cc1cccc2ccccc12
inactive: [1] 35.7 µM | [2] 21.8 µM | [3] 24 µM | [4] 44.3 µM

CS(=O)(=O)N1CC(CCl)c2ccc(O)cc21 (configuration not stated)
inactive: [1] 1.89 µM | [2] 2.2 µM | [3] 2.17 µM | [4] 4.32 µM

CCOc1ccc(NC(=O)CC2SC(N)=NC2=O)cc1 (configuration not stated)
inactive: [7] > 100 µM | [5] > 100 µM | [6] > 100 µM

CCOC(=O)/C(=C\c1ccnc2ccccc12)P(=O)(OCC)OCC
inactive: [1] 2.75 µM | [2] 2.11 µM | [3] 5.53 µM | [4] 3.21 µM

N[C@@H]1C[C@H](N)c2c(Cl)sc(Cl)c21
inactive: [1] > 100 µM | [2] > 100 µM | [3] > 100 µM

COc1ccc(N2C(=O)/C(=C\c3ccccc3)SC2c2cc(OC)c(OC)c(OC)c2)cc1 (configuration not stated)
inactive: [1] 20 µM | [2] 88.5 µM | [3] 39.2 µM | [4] 84.5 µM

COc1ccc(C2SCC(=O)N2NC(=O)c2ccc(NC(C)=O)cc2)c(OC)c1 (configuration not stated)
inactive: [1] > 100 µM | [2] > 100 µM | [4] > 100 µM

CNC(=O)OC(COC)CN1CCN(c2ccccc2C)CC1 (configuration not stated)
inactive: [1] > 10 µM | [2] > 10 µM | [3] > 10 µM | [4] > 10 µM

Cc1ccc(NC=O)c(-c2c(N)[nH]c(=S)[nH]c2=O)c1
inactive: [1] 94 µM | [2] > 100 µM | [4] > 100 µM
